Values quoted from earlier work in publication PMC12472391, “Borylated Five-Membered Ring Iminosugars: Synthesis, Spectroscopic Analysis, and Biological Evaluation for Glycosidase Inhibition and Anticancer Properties for Application in Boron Neutron Capture Therapy (BNCT)—Part 1” (Pharmaceuticals, 2025).
Where a name gives a salt, the structure may show the parent alone. Read-outs that look alike come from different tables or passages of the source.

How the values were obtained:
Conditions in all cases: cited from earlier work
[1] = target: β-D-galactosidase (E. coli) (Escherichia coli, UniProt P00722)
β-D-galactosidase (E. coli), sequence (P00722 2-1024): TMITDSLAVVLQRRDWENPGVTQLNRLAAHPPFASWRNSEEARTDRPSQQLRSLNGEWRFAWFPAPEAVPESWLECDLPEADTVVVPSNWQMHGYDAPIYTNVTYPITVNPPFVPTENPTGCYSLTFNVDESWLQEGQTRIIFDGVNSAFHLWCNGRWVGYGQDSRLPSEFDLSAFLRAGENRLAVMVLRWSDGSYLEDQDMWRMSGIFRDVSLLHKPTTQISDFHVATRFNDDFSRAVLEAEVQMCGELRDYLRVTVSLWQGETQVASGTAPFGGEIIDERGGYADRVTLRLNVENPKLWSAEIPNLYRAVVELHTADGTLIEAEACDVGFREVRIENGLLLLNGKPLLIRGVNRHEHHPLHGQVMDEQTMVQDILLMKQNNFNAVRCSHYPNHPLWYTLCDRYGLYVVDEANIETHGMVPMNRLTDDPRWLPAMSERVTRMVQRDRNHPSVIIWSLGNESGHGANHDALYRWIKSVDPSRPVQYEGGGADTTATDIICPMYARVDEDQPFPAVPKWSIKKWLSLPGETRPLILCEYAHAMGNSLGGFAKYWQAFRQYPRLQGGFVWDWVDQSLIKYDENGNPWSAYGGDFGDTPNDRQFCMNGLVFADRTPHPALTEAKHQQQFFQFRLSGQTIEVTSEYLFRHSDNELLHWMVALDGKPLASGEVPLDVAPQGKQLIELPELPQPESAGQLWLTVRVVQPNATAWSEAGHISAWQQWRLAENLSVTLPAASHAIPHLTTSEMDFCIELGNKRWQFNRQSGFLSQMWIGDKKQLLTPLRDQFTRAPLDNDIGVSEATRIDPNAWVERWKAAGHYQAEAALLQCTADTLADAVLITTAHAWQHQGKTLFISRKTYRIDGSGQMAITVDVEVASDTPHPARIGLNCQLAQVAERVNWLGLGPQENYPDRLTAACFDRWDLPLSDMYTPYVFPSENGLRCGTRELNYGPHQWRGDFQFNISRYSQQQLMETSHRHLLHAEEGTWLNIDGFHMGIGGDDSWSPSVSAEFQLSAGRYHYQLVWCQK

[2] = system: trehalase (porcine kidney); design: method as in PMID 31944194
α-D-glucosidase (yeast) = target: T1, α-D-glucosidase (yeast) (Saccharomyces cerevisiae, UniProt P53341); design: method as in PMID 31944194
T1 construct: purchased Sigma
T1 sequence (P53341 whole entry): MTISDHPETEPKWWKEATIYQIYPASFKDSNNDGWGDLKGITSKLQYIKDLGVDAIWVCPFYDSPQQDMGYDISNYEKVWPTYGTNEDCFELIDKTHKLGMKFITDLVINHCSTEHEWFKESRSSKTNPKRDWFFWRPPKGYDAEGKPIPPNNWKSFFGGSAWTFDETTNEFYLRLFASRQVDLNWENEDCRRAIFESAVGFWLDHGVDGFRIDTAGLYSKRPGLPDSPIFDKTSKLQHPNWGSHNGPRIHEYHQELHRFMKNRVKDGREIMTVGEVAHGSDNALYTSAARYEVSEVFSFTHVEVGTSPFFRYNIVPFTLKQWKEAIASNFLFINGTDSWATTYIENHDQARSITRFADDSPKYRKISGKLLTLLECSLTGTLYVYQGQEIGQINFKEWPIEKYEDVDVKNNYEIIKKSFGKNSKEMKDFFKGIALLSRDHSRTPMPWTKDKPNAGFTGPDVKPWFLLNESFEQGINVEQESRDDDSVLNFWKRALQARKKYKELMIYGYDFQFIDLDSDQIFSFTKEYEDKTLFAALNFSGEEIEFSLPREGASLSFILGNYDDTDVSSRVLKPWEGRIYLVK

[3] = target: T2, β-D-galactosidase (bovine liver) (Bos taurus, UniProt Q58D55); design: method as in PMID 31944194
T2 sequence (Q58D55 28-653): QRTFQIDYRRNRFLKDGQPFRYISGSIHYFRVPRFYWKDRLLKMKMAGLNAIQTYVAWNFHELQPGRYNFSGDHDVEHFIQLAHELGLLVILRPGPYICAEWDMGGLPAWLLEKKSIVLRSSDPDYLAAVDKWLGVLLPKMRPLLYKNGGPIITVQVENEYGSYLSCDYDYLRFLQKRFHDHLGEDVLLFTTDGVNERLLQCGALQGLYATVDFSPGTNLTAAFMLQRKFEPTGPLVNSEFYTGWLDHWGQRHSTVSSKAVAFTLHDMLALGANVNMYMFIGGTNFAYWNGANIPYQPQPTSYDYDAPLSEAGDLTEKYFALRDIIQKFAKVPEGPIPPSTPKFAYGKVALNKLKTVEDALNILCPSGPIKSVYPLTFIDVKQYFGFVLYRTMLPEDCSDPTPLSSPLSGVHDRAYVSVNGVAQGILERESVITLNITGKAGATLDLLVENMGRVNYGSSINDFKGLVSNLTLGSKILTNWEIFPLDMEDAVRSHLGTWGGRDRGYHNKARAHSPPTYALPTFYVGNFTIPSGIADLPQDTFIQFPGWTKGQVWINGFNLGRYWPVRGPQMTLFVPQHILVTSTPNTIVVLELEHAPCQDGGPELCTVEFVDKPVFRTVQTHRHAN

[4] = target: β-D-glucosidase (human lysosome) (Homo sapiens, UniProt P04062); design: method as in PMID 31944194
β-D-glucosidase (human lysosome), sequence (P04062 40-536): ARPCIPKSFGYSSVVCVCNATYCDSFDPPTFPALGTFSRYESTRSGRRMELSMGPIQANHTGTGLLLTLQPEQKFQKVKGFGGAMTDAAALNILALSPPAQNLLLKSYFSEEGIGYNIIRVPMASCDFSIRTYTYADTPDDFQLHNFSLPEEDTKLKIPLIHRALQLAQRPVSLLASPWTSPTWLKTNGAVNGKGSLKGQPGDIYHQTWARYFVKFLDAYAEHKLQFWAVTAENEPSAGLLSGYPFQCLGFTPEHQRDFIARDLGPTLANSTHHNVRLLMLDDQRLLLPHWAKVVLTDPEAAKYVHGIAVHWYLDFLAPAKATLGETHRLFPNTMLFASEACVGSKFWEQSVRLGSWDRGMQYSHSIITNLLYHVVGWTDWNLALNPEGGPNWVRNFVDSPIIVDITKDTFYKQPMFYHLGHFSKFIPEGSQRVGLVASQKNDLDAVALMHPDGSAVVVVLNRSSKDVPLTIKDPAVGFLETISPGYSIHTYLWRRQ

[5] = system: amyloglucosidase (A. niger); design: method as in PMID 31944194
[6] = target: fruit fly lysosomal acidic α-D-mannosidase; design: method as in PMID 29323461
[7] = target: T3, α-D-mannosidase (Jack bean) (Canavalia ensiformis, UniProt C0HJB3); design: method as in PMID 31944194
T3 construct: purchased Sigma
T3 sequence (C0HJB3 1-981): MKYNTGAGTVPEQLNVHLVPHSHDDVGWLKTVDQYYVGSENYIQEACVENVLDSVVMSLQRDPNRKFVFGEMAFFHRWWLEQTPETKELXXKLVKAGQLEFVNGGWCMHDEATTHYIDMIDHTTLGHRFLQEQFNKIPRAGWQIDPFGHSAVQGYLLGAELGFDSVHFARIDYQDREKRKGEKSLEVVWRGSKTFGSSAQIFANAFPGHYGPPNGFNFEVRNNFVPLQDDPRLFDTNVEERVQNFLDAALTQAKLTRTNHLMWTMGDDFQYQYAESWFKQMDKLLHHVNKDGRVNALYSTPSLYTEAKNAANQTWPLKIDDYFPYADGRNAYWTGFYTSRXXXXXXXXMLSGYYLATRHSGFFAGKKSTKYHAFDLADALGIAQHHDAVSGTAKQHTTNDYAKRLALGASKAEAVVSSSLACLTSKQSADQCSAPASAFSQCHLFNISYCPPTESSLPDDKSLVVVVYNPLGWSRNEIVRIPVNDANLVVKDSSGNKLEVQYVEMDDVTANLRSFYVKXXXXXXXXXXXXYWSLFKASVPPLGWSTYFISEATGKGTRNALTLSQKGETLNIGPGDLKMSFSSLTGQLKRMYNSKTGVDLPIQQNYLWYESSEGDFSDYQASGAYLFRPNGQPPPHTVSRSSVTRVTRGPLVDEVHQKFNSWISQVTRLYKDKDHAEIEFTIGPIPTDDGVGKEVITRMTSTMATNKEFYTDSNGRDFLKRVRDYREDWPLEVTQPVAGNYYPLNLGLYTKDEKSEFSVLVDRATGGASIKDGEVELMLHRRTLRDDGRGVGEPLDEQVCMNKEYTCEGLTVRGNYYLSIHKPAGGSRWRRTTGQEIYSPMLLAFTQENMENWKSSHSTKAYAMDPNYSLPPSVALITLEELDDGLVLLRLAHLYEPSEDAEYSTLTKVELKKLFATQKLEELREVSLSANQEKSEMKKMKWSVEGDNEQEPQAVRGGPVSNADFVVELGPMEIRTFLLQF

[8] = target: fruit fly Golgi II α-D-mannosidase; design: method as in PMID 29323461
[9] = system: α-D-galactosidase (coffee bean); design: method as in PMID 31944194
[10] = system: α-L-rhamnosidase (P. decumbens); design: method as in PMID 31944194
[11] = system: β-D-glucosidase (bovine liver); design: method as in PMID 31944194
[12] = system: α-L-fucosidase (bovine kidney); design: method as in PMID 31944194
[13] = target: T4, β-D-glucuronidase (E. coli) (Escherichia coli, UniProt P05804); design: method as in PMID 31944194
T4 construct: purchased Sigma-Aldrich Co
T4 sequence (P05804 whole entry): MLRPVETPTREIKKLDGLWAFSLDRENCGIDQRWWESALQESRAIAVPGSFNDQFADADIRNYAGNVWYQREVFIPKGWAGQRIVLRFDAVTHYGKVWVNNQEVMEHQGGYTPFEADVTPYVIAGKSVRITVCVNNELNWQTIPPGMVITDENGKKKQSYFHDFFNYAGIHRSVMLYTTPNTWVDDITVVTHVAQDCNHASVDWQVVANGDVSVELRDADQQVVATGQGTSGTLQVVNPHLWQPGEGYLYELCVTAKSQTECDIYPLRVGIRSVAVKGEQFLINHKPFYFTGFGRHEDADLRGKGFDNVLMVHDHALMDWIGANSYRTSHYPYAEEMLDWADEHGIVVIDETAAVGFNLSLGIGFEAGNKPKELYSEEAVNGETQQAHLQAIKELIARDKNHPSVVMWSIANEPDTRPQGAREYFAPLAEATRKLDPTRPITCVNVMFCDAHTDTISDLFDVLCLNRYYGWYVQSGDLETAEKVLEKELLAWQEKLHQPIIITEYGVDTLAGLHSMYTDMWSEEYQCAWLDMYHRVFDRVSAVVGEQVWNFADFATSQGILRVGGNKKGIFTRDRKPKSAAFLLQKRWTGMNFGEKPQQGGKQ

[14] = system: α-D-mannosidase (neutral); design: method as in PMID 8457203
[15] = system: α-D-glucosidase (rat intestinal maltase); design: method as in PMID 31944194
α-D-glucosidase (rice) = α-D-glucosidase (rice) (Oryza sativa subsp. japonica, UniProt Q653V7); design: method as in PMID 31944194
α-D-glucosidase (rice), sequence (Q653V7 34-885): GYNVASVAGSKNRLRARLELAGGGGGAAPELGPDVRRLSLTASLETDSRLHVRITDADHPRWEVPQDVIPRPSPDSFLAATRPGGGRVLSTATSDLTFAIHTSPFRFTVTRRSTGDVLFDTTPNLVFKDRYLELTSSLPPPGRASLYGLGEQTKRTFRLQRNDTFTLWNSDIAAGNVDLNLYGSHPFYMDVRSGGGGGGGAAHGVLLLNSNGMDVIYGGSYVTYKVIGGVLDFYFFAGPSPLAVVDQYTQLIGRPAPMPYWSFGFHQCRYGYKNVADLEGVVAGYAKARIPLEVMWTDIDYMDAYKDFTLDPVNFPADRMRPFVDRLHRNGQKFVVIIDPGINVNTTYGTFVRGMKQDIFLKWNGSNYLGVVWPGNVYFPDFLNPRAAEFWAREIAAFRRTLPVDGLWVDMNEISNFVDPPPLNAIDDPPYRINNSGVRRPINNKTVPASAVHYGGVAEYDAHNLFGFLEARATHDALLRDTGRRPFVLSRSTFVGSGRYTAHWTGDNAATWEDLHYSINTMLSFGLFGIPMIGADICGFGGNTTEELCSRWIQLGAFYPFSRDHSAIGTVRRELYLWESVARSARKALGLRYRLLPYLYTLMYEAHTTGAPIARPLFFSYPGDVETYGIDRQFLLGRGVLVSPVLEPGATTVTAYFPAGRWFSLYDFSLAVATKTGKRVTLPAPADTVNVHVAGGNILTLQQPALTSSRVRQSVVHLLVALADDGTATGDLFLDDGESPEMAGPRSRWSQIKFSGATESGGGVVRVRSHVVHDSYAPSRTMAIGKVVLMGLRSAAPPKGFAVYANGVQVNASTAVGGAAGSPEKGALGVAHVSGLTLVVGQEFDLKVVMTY

β-D-glucosidase (almond) = system: β-D-glucosidase (almond); design: method as in PMID 31944194
[16] = system: α-D-mannosidase (Golgi II); design: method as in PMID 8457203
β-D-mannosidase (snail) = system: β-D-mannosidase (snail); design: method as in PMID 31944194
[17] = system: α-D-mannosidase (lysosomal acidic); design: method as in PMID 8457203
[18] = target: T3, α-D-mannosidase (Jack bean)
[19] = system: α-D-galactosidase (coffee bean)
[20] = system: α-D-mannosidase (Golgi II); design: method as in PMID 2706004
[21] = system: α-D-mannosidase (lysosomal acidic); design: method as in PMID 2706004
[22] = system: β-D-N-acetylhexosaminidase; design: method as in PMID 2706004
α-L-fucosidase = system: α-L-fucosidase; design: method as in PMID 2706004
β-D-mannosidase = system: β-D-mannosidase; design: method as in PMID 2706004
aldose reductase = system: aldose reductase; design: method as in PMID 31557624
α-D-glucosidase = system: α-D-glucosidase; design: method as in PMID 31557624

Cl.OC[C@@H](O)[C@H]1[C@H](O)[C@H](O)CN1Cc1ccccc1B(O)O [N-(2-Methylphenylboronic acid)-1,4-dideoxy-1,4-imino-D-talitol.HCl]
β-D-galactosidase (E. coli) inhibition [1]: β-D-galactosidase (E. coli) (44–55%)

OC[C@@H](O)[C@@H]1[C@H](O)[C@H](O)CN1Cc1ccccc1 [N-Benzyl-1,4-dideoxy-1,4-imino-D-mannitol.HCl]
trehalase (porcine kidney) inhibition [2]: 0% | α-D-glucosidase (yeast) inhibition (α-D-glucosidase (yeast)): 6.5% | β-D-galactosidase (bovine liver) inhibition [3]: 7.9% | β-D-glucosidase (human lysosome) inhibition [4]: 4.7% | amyloglucosidase (A. niger) inhibition [5]: 11.4% | IC50 [6]: 1500 µM | α-D-mannosidase (Jack bean) inhibition [7]: 27% | IC50 [8]: 690 µM | α-D-galactosidase (coffee bean) inhibition [9]: 8.8% | α-L-rhamnosidase (P. decumbens) inhibition [10]: 11.5% | β-D-glucosidase (bovine liver) inhibition [11]: 9.5% | α-L-fucosidase (bovine kidney) inhibition [12]: 8.4% | β-D-glucuronidase (E. coli) inhibition [13]: 9.8% | α-D-mannosidase neutral inhibition [14]: 44% | α-D-glucosidase (rat intestinal maltase) inhibition [15]: 16.6% | α-D-glucosidase (rice) inhibition (α-D-glucosidase (rice)): 34.2% | β-D-glucosidase (almond) inhibition (β-D-glucosidase (almond)): 6.1% | α-D-mannosidase Golgi II inhibition [16]: 72% | β-D-mannosidase (snail) inhibition (β-D-mannosidase (snail)): 4.4% | α-D-mannosidase lysosomal acidic inhibition [17]: 34%

OC[C@@H](O)[C@H]1[C@H](O)[C@H](O)CN1Cc1ccccc1 [N-Benzyl-1,4-dideoxy-1,4-imino-D-talitol.HCl]
α-D-mannosidase (Jack bean) inhibition [18]: little inhibition | α-D-galactosidase (coffee bean) inhibition [19]: little inhibition | β-D-galactosidase (E. coli) inhibition [1]: little inhibition

OC[C@@H](O)[C@@H]1[C@@H](O)[C@@H](O)CN1Cc1ccccc1 [N-Benzyl-1,4-dideoxy-1,4-imino-D-allitol]
α-D-mannosidase Golgi II inhibition [20]: 11% | α-D-mannosidase lysosomal acidic inhibition [21]: 7% | β-D-N-acetylhexosaminidase inhibition [22]: 35% | α-L-fucosidase inhibition (α-L-fucosidase): α-L-fucosidase (76%) | β-D-mannosidase inhibition (β-D-mannosidase): 0%

OC[C@@H](O)[C@H]1[C@H](O)[C@@H](O)CN1Cc1ccccc1 [N-Benzyl-1,4-dideoxy-1,4-imino-D-galactitol]
aldose reductase inhibition (aldose reductase): 32.6% | α-D-glucosidase inhibition (α-D-glucosidase): 93.2% | IC50 (α-D-glucosidase; read-out: IC50 towards α-D-glucosidase): 40.6 µM
